According to patent US4439619A, “Fluorinated pentene diamine derivatives” (Merrell Toraude et Compagnie, priority 1980, dated 1984):

Tests used:
[1] = molecular target: T1, Ornithine decarboxylase (ODC) (Rattus norvegicus, UniProt P09057); experiment: Inhibition of ornithine decarboxylase (ODC) in vitro (partially purified ODC from rat liver, 14CO2 assay, Kitz and Wilson); format: biochemical, rats; design: Half-life (t1/2): dose or concentration left out as unconfirmed; details: for τ50 (half-life, at infinite concentration of inhibitor) / Ki: 37°, Kitz and Wilson; for Ki: time-dependent inhibition, read-out: KI (apparent dissociation constant)
T1 construct: prepared from the livers of rats which have been injected with thioacetamide; from tissue; host or cells: rat liver (thioacetamide-injected rats), purified about ten fold by acid treatment at pH 4.6
T1 sequence (P09057 1-461): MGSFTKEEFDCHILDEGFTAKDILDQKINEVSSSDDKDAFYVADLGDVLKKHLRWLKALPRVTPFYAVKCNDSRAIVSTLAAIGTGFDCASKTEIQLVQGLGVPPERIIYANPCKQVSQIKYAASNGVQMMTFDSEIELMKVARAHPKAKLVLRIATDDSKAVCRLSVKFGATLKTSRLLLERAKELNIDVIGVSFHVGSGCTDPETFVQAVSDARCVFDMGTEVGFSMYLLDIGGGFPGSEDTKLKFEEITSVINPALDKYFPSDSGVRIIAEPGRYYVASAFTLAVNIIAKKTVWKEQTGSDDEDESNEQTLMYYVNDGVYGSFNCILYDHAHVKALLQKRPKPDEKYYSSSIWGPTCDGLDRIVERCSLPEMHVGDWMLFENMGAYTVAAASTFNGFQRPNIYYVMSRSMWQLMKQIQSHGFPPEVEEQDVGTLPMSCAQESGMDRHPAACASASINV
Method: Ornithine decarboxylase (ODC) is prepared from the livers of rats which have been injected with thioacetamide (150 mg/kg of body weight) 18 hrs before sacrifice, and is purified about ten fold by acid treatment at pH 4.6 as described by Ono et al. (Biochem. Biophys. Acta 284, 285 (1972)). The stock solution of ODC is comprised of protein (16 mg/mL), sodium phosphate buffer (30 mM, pH 7.1), dithiothreitol (5 mM) and pyridoxal phosphate (0.1 mM). The specific activity of this stock solution is 0.12 nmol of CO2 /min per mg of protein. For a typical experiment 320 μl of this stock solution are mixed at time 0 with 80 μl of a solution of the inhibitor in water and incubated at 37°. At different times 50 μl aliquots are transferred into a 1-mL assay medium containing sodium phosphate (30 mM, pH 7.1), dithiothreitol (5 mM), pyridoxal phosphate (0.1 mM), L-ornithine ([…]), and DL-[1-^14 C] ornithine ([…], 58 Ci/mol, Amersham) in a closed vessel in which a filter paper moistered with 50 μl hyamine hydroxide (1 M) is fitted. The reaction is allowed to proceed for 60 min at 37° C. and then terminated by addition of 0.5 ml of 40% trichloroacetic acid. After an additional 30 min the CO2 absorbed on the filter paper is counted in a standard scintillation cocktail. KI (apparent dissociation constant) and .tau.50 (half-life, at infinite concentration of inhibitor are calculated according to the method of Kitz and Wilson (J. Biol. Chem., 237, 3245 (1962)).
When tested according to the above-described procedure, representative compounds of Formula I gave the results shown in Table III below. The same abbreviations are used as in Table II and DFMDP is α-difluoromethyl-trans-β-dehydroputrescine.

[2] = test system: Ornithine decarboxylase (ODC); experiment: ODC inhibitory activity in vivo (ODC activity in ventral prostate and thymus of rats); design: species or system rats (Sprague-Dawley)
Method: Male rats of the Sprague-Dawley strain (200-220 g body weight), purchased from Charles River, are given food and water ad libitum under a constant 12 hr light--12 hr dark lighting schedule. Drugs are injected intraperitoneally (dissolved in 0.9% saline) or are given by gavage (dissolved in water). Rats given saline or water serve as control. Five to six hours after drug administration, the animals are killed by decapitation and the ventral prostrate and thymus are excised rapidly and immediately processed. The tissues are homogenized with three volumes of 30 mM sodium phosphate buffer (pH 7.1) containing 0.1 mM EDTA, 0.25 M sucrose, 0.1 mM pyridoxal phosphate and 5 mM dithiothreitol. Ornithine decarboxylase activities are determined on a 1000 g supernatant of prostate homogenate and on a whole thymus homogenate, essentially as described by Ono et al. (Biochem. Biophys. Acta, 284, 285 (1972)).
When tested according to the above-described procedure, representative compounds of Formula I gave the results shown in Table II below and in which the following abbreviations are used: […]

[3] = Contragestational activity in mice (method of J. Fozard); format: in vivo; details: 80 mg/kg S.C. every six hours on the 8th day of gestation
Method: The compounds of Formula I wherein Rc is --COR3 are also capable of interrupting embryogenesis in female mammals when administered systematically. Thus, the compounds are useful as contragestational agents in female mammals when it is desired to terminate early pregnancy. […] In general, an effective daily dose of the compounds of Formula I, wherein Rc is --COR3, for terminating pregnancy in warm-blooded mammals is from 10 mg/kg to 1 g/kg, preferably 10 to 100 mg/kg, administered after fertilisation during the period between Standard Stages 8-16 of gestation as defined by E. Wischi (See Tables 26-27, pages 82-92, Biology Data Book, Altman and Dittmer, Editors, Published by the Federation of American Societies for Experimental Biology, Washington, D.C., 1964). The period of treatment will vary with the species. In humans, the period of treatment will extend from the 6th-7th day of gestation of the 27th day.

[4] = test system: ODC; experiment: ODC activity in the EMT6 tumor of treated mice; format: in vivo; details: all treatments (2% and 0.2% in water, 200 mg/kg i.p.)
[5] = test system: EMT6 solid tumors; experiment: Anti-neoplastic effect in mice inoculated with EMT6 solid sarcoma; format: in vivo
Source text: (§1) When tested in mice against L 1210 leukemia and EMT6 solid tumors, -fluoromethyl-trans-dehydroputrescine (MFMDP) gave the following results:
2% MFMDP in water as sole drinking fluid starting 4 days after inoculation of the cells, inhibited by 60% to 70% the growth of the tumor at day 17. When given at 0.2% in water, it inhibited by 25% tumor growth.

[6] = test system: L 1210 leukemia; format: in vivo, mice
Method: as §1
When injected i.p. (twice a day from day 1) at a dose of 50 mg/kg it increased by 20% the mean survival time of the mice.

[7] = in vivo; format: in vivo, mice; details: 2% in drinking water or 200 mg/kg i.p. twice a day, after 10 days
Method: When given in drinking water (2%) or injected i.p. (200 mg/kg twice a day) MFMDP induced the following toxic effects observed after 10 days of treatment: […]

[8] = Acute i.p. toxicity (LD50) in mice; details: mouse, in vivo, ip, acute i.p. injection
Source text: The LD50 is acute i.p. injection was between 1 and 3 g/kg in mice.

[9] = test system: carcinoma of the bladder, esophagus, lung, pancreas, colon, kidney, breast and prostate, oat cell carcinoma, adenocarcinoma, lymphoma, hepatoma, melanoma …; details: intravenously once or twice a week; 65 treated patients; cited from earlier work

NC/C=C/C(N)(C(=O)O)C(F)F (centres unmarked) [DFMDO, 2-Difluoromethyl-2,5-diamino-3-(E)-penten-1-oic acid]
Half-life (t1/2) [1]: 10.0 min
τ50 (half-life, at infinite concentration of inhibitor) [1]: 2.5 min
Ki [1]: 30 µM
ODC activity, ventral prostate ([2]; 50 mg/kg gavage): 119 % CONTROL

NC/C=C/C(N)C(F)F (centres unmarked) [DFMDP, 2,2-Difluoro-2,5-diamino-3-(E)-pentene]
Half-life (t1/2) [1]: 5 min
τ50 (half-life, at infinite concentration of inhibitor) [1]: 0.7 min
Ki [1]: 60 µM

NC/C=C/C(N)(CF)C(=O)O (centres unmarked) [MFMDO, 2-Fluoromethyl-2,5-diamino-3-(E)-penten-1-oic acid]
Half-life (t1/2) [1]: 3.1 min
τ50 (half-life, at infinite concentration of inhibitor) [1]: 2.7 min
Ki [1]: 2.8 µM
ODC activity, ventral prostate ([2]; 50 mg/kg I.P.): 18 % CONTROL
ODC activity, ventral prostate ([2]; 50 mg/kg gavage): 36 % CONTROL
inhibition of gestation (number of viable feti per gravid female vs controls) [3]: inhibited gestation

NC/C=C/C(N)CF (centres unmarked) [MFMDP, 1-Fluoro-2,5-diamino-3-(E)-pentene]
Half-life (t1/2) [1]: 0.9 min
τ50 (half-life, at infinite concentration of inhibitor) [1]: 0.2 min
Ki [1]: 42 µM
ODC activity in the tumor [4]: markedly inhibited in all cases
ODC activity, thymus ([2]; 25 mg/kg I.P.): 24 % CONTROL
ODC activity, ventral prostate ([2]; 25 mg/kg gavage): 12 % CONTROL
inhibition of tumor growth ([5]; 0.2% in water): 25%
inhibition of tumor growth ([5]; 200 mg/kg i.p. twice a day starting 4 days after inoculation, day 13): 50%
increase of mean survival time ([6]; 50 mg/kg i.p. twice a day from day 1): 20%
prolongation of survival ([6]; 0.2% in water as sole drinking fluid from day 1 after inoculation): did not prolong the survival of the mice
increased survival ([6]; 200 mg/kg i.p.): no increased survival could be observed
toxicity ([6]; 200 mg/kg i.p., L 1210 mice): toxic
decrease in body weight [7]: 25%
decrease in water intake [7]: 30-40%
drop in blood leukocytes [7]: 50%
mortality at 240 h ([7]; mouse, in vivo, read-out: animals dead): 15%
LD50 [8]: 1000 to 3000 mg/kg

CC(C=NNC(=N)N)=NNC(=N)N [MGBG, methylglyoxal bis(guanylhydrazone)]
complete disappearance of the disease [9]: complete disappearance of the disease in two of the 65 treated patients
regression of the tumor [9]: measurable regression of the tumor in many of the patients treated
